# Read-outs that look alike come from different tables or passages of the source.
# Tests used:
# [1] = cited from earlier work
# [2] = tested on: popliteal and/or inguinal lymph node
# [3] = macroscopic guidance of diagnostic procedures
SMILES,"side effects for the patients [1, 3]",further results
"CC1(C)C(/C=C/C=C/C=C/C=C2\N(CCCCS(=O)(=O)O)c3ccc4ccccc4c3C2(C)C)=[N+](CCCCS(=O)(=O)[O-])c2ccc3ccccc3c21 [ICG, Indocyanine green]",very limited side effects,
"Cc1cc(O)c2c(=O)c3c(O)cc(O)c4c5c(O)cc(O)c6c(=O)c7c(O)cc(C)c8c1c2c(c34)c(c78)c65 [hypericin, Hypericin]",very limited side effects,
"Cc1cc2nc3ccc(N(C)C)cc3[s+]c2cc1N.[Cl-] [TB, Toluidine Blue]",very limited side effects,"time to macroscopically visible diffusion of dye to the lymph node ([2]; sub-cutaneous injection, 100 μL into footpad): 5 min"
"CCN(CC)c1ccc(C(=C2C=CC(=[N+](CC)CC)C=C2)c2cc(O)c(S(=O)(=O)[O-])cc2S(=O)(=O)[O-])cc1.[Na+] [PB, sodium patent blue V]",,"time to macroscopically visible diffusion of dye to the lymph node ([2]; rat, in vivo): 5 min; side effects for the patients ([1]; human, in vivo): very limited side effects"
"CN(C)c1ccc2nc3ccc(=[N+](C)C)cc-3sc2c1 [MB, Methylene blue]",very limited side effects,"time to macroscopically visible diffusion of dye to the lymph node ([2]; male, Wistar, rat, in vivo): 5 min"

# From patent US20190358348A1, “CHARACTERIZATION OF BIOLOGICAL TISSUES AT A CELLULAR LEVEL USING RED AND FAR-RED FLUORESCENT DYES” (IGR-Institut Gustave Roussy, priority 2012, published 2019)
